One experiment addresses T1, rTRPV2 (Rattus norvegicus, UniProt Q9WUD2, A713V/L151P/T158I).
T1 construct: expressed in transfected cells; host or cells: HEK293T (ATCC CRL-11268)
T1 sequence (Q9WUD2 1-761 L151P/T158I/A713V): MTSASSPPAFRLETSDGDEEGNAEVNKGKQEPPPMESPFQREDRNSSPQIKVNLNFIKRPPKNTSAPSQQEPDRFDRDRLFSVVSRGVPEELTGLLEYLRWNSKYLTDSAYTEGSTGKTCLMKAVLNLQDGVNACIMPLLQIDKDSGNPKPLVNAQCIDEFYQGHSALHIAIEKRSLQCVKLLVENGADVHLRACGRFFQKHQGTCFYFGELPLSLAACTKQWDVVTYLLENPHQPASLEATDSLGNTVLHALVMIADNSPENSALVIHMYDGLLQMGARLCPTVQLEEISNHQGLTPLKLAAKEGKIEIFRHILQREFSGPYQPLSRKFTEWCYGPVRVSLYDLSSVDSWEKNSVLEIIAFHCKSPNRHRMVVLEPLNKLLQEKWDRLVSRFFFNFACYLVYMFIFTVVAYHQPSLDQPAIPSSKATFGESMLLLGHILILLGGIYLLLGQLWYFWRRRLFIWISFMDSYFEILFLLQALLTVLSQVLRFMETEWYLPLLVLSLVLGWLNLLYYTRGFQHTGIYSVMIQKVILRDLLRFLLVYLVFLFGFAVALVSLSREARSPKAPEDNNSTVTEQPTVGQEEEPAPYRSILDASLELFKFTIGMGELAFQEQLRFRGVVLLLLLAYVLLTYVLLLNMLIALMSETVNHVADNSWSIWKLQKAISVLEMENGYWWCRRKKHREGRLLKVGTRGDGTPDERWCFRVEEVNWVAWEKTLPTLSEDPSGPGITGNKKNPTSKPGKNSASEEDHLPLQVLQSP
The experiment in a line: Fluo-3 calcium imaging in TRPV2 transfected HEK293T cell line. It is filed as cell-based. The procedure:
HEK293T cell line (ATCC CRL-1 1268) was transiently transfected with plasmid DNA containing polynucleotide encoding […] (SEQ. ID. NO: 1), rTRPV2 (SEQ. ID. NO: 2), mTRPV3 (SEQ. ID. NO: 3), rTRPV4 (SEQ. ID. NO: 4), mTRPM8 (SEQ. ID. NO: 5) or mTRPA1 (SEQ. ID. NO: 6).
Particularly, the HEK293T cell line was transiently transfected with individual TRP channel plasmid (pcDNA3.1 containing polynucleotide encoding rTRPV1, rTRPV2, mTRPV3, rTRPV4, mTRPM8 or mTRPA1), and 600 ng/well of pCDNA3 (Invitrogen Corp., USA; containing green fluorescent protein (GFP) cDNA) using Fugene6 (Roche Diagnostics, USA) according to manufacturer's instruction. The transformed cells were cultured in DMEM/F12 containing 10% FBS and 1% penicillin/streptomycin in a CO2 incubator for 24 hours. The cells were replated onto poly-L-lysine-coated glass coverslips, followed by further culture for 10-24 hours.
The TRPV2 transfected cell line prepared in Example 1 was treated with 100 μM probenecid and 300 μM 2-APB.
The TRPV2 transfected cell line prepared in Example 1 was treated with probenecid at different concentrations from 0.1 to 1,000 μM.
Particularly, the transfected cell line of Example <3-1> and Example <3-2> was loaded with Fluo-3AM (5 μM; Sigma Aldrich, USA) in the bath solution (140 mM NaCl, 5 mM KCl, 2 mM CaCl2, 1 mM MgCl2, 10 mM HEPES; adjusted to pH 7.4 with NaOH) containing 0.02% pluronic acid (Invitrogen, USA) at 37° C. for 1 hour. Calcium imaging was performed with a confocal microscope (LSM5 Pascal, Carl Zeiss, Germany), and time-lapse images (excitation 488 nm/emission 514 nm) were collected every 3 seconds using Carl Zeiss ratio tool software (Carl Zeiss, Germany).
The TRPA1, TRPV1, TRPV2, TRPV3, TRPV4 and TRPM8 transfected cell lines prepared by the method of Example 1 and the non-transfected HEK cell line (control group) were treated with 100 μM probenecid. Calcium imaging was performed with the transfected cell lines treated as the above by the same manner as described in Example <3-3>.

Experiment [1] in a line: Hindpaw licking/flicking behaviors. Conditions: 10 minutes. It is filed as in vivo, mice. The procedure: Inflammatory sensitization by probenecid was investigated. Particularly, 50 μl of 1% carrageenan (Sigma Aldrich, USA) was injected to the right hind paws of mice 3 hours before the probenecid injection or 50 μl of CFA (complete Freund's adjuvant; Sigma Aldrich, USA) was injected 24 hours before the probenecid injection. Before the experiment, the mice were adapted for one hour to the experimental environment. […] of vehicle (saline containing 3% DMSO and 0.5% Tween 80) alone or […] of vehicle containing probenecid (20 mM) was injected to the right hind paws of the mice.
The time spent for the hindpaw licking/flicking behaviors in mice were measured according to the method of Bandell M, et al. (Neuron 41:849-857, 2004) and Moqrich A, et al. (Science 307:1468-1472, 2005), for 10 minutes. Statistical data were analyzed by two-tailed, unpaired Student's-t-test and the results were presented by mean ±S.E.M. (***p<0.001, **p<0.01, *p<0.05 and ND, p>0.05).

As a reminder, the Kd is the equilibrium constant for the complex coming apart.

The structures appear in SMILES notation. “Also recorded” adds a separate entry of the source.

Take `CCCN(CCC)S(=O)(=O)c1ccc(C(=O)O)cc1` [probenecid]: the “TRPV2 activation (calcium imaging)” value at rTRPV2 (100 μM probenecid) is reported as “activated”. In addition, the “n (Hill plot of calcium influx responses)” value on rTRPV2 (n=12-62 per experimental value) is given as 2.8. The Kd on rTRPV2 (n=12-62 per experimental value, read-out: Kd (Hill plot of calcium influx responses)) amounted to 31.9 µM. Besides, the maximal effective dose result at rTRPV2 (probenecid 0.1 to 1,000 μM, calcium influx) was “about 1 mM”. Besides, the EC50 on rTRPV2 (probenecid 0.1 to 1,000 μM, calcium influx, read-out: EC50 (effective concentration 50%) on TRPV2) stood at 31.9 µM. For the same molecule, in experiment [1] (20 mM probenecid injected to the right hind paw), the “hindpaw licking/flicking behavior in normal mice” value is listed as “no significant changes in behavior”. The “hindpaw licking/flicking behavior in mice with inflammation induced by carrageenan” value in experiment [1] (1% carrageenan 3 hours before, 20 mM probenecid to the right hind paw) is reported as “significantly extended behavior time; also recorded: behavial changes were observed”. In addition, the “hindpaw licking/flicking behavior in mice with inflammation induced by CFA” value in experiment [1] (CFA 24 hours before, 20 mM probenecid to the right hind paw) is given as “significantly extended behavior time; also recorded: behavial changes were observed”.
